Laboratory results from US20220396565A1 (Hoffmann-La Roche Inc., priority 2020, published 2022).
Counter-ions that a name gives are not always drawn. Like-named read-outs stand apart in the source and are kept apart here.

System: Acinetobacter baumannii ATCC17961
Assay: Antimicrobial susceptibility testing: 90% growth inhibitory concentration (IC90) determination, Iso-Sensitest broth
Format: cell-based
Settings: Acinetobacter baumannii
Procedure, shortened: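 Growth at OD600 was monitored every 20 min for 16 h at 35±2 °C, with bacteria inoculated at ~5×10^(5) CFU/ml into Iso-Sensitest medium. Compounds were tested as 10-point twofold dilutions (e.g. 10–0.02 μM final). The 90% inhibitory concentration comes from the log-phase growth.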

[1] = ATCC17961, 90% growth inhibitory concentration, Acinetobacter baumannii ATCC17961, Iso-Sensitest broth, read-out: ATCC 17961 IC90

SMILES	IC90 [1] [µM]	IC90 (ATCC17961, read-out: ATCC 17961 IC90) [µM]
COc1ccc(-c2cnc(C(=O)Nc3ccc(C(=O)N4CCN(C(=O)C5CCN(C(=O)CN(C)C)CC5)CC4)c(Cl)c3)n2C)c(F)c1F [Example 120, N-[3-chloro-4-[4-[1-[2-(dimethylamino)acetyl]piperidine-4-carbonyl]piperazine-1-carbonyl]phenyl]-5-(2,3-difluoro-4-methoxy-phenyl)-1-methyl-imidazole-2-carboxamide]	0.06	
COc1ccc(-c2cnc(C(=O)Nc3ccc(C(=O)N4CCN(C(=O)C5CC6(CNC6)C5)CC4)c(C)c3)n2C)c(Cl)c1F [Example 119, N-[4-[4-(2-azaspiro[3.3]heptane-6-carbonyl)piperazine-1-carbonyl]-3-methyl-phenyl]-5-(2-chloro-3-fluoro-4-methoxy-phenyl)-1-methyl-imidazole-2-carboxamide; formic acid]	0.12	
CN(C)c1ccc(-c2cnc(C(=O)Nc3ccc(C(=O)N4CCN(C(=O)C5CCNCC5)CC4)c(Cl)c3)n2C)c(F)c1F [Example 262, N-[3-chloro-4-[4-(piperidine-4-carbonyl)piperazine-1-carbonyl]phenyl]-5-[4-(dimethylamino)-2,3-difluoro-phenyl]-1-methyl-imidazole-2-carboxamide formate]	0.07	
COc1ccc(-c2cnc(C(=O)Nc3ccc(C(=O)N4CCN(C(=O)CC5CCNCC5)CC4)c(Cl)c3)n2C)c(F)c1F [Example 142, N-[3-chloro-4-[4-[2-(4-piperidyl)acetyl]piperazine-1-carbonyl]phenyl]-5-(2,3-difluoro-4-methoxy-phenyl)-1-methyl-imidazole-2-carboxamide; formic acid]	0.04	
COc1ccc(-c2cnc(C(=O)Nc3ccc(C(=O)N4CCC(C(=O)N[C@@H]5CNC[C@H]5O)CC4)c(Cl)c3)n2C)c(F)c1F [Example 60, 1-[2-chloro-4-[[5-(2,3-difluoro-4-methoxy-phenyl)-1-methyl-imidazole-2-carbonyl]amino]benzoyl]-N-[(3R,4R)-4-hydroxypyrrolidin-3-yl]piperidine-4-carboxamide formate]	0.05	
Cn1c(-c2ccc(OC(F)F)c(F)c2F)cnc1C(=O)Nc1ccc(C(=O)N2CCN(C(=O)C3CCN(C(=O)C4(O)CCNCC4)CC3)CC2)c(Cl)c1 [Example 179, N-[3-chloro-4-[4-[1-(4-hydroxypiperidine-4-carbonyl)piperidine-4-carbonyl]piperazine-1-carbonyl]phenyl]-5-[4-(difluoromethoxy)-2,3-difluoro-phenyl]-1-methyl-imidazole-2-carboxamide formate]	0.05	
Cn1c(-c2ccc(OCC#N)c(F)c2F)cnc1C(=O)Nc1ccc(C(=O)N2CCN(C(=O)[C@@H]3CCCCN3)CC2)c(Cl)c1 [Example 211, (S)-N-(3-chloro-4-(4-(piperidine-2-carbonyl)piperazine-1-carbonyl)phenyl)-5-(4-(cyanomethoxy)-2,3-difluorophenyl)-1-methyl 1H-imidazole-2-carboxamide formate]		0.05
COc1ccc(-c2cnc(C(=O)Nc3ccc(C(=O)N4CCN(C(=O)[C@H]5[C@@H]6CNC[C@@H]65)CC4)c(Cl)c3)n2C)c(F)c1F [Example 184, N-[4-[4-[(1R,5S)-3-azabicyclo[3.1.0]hexane-6-carbonyl]piperazine-1-carbonyl]-3-chloro-phenyl]-5-(2,3-difluoro-4-methoxy-phenyl)-1-methyl-imidazole-2-carboxamide trifluoroacetate]	0.02	
COc1ccc(-c2cnc(C(=O)Nc3ccc(C(=O)N4CCN(C(=O)C5(O)CCNCC5)CC4)c(C)c3)n2C)c(Cl)c1F [Example 118, 5-(2-chloro-3-fluoro-4-methoxy-phenyl)-N-[4-[4-(4-hydroxypiperidine-4-carbonyl)piperazine-1-carbonyl]-3-methyl-phenyl]-1-methyl-imidazole-2-carboxamide formate]	0.14	
COc1ccc(-c2cnc(C(=O)Nc3ccc(C(=O)N4CCN(C(=O)CC5(O)CCNCC5)CC4)c(Cl)c3)n2C)c(Cl)c1F [Example 182, 5-(2-chloro-3-fluoro-4-methoxy-phenyl)-N-[3-chloro-4-[4-[2-(4-hydroxy-4-piperidyl)acetyl]piperazine-1-carbonyl]phenyl]-1-methyl-imidazole-2-carboxamide formate]	0.07	

Second part, led by results:

IC90 [1] [µM]	SMILES	IC90 (ATCC17961, read-out: ATCC 17961 IC90) [µM]
0.06	COc1ccc(-c2cnc(C(=O)Nc3ccc(C(=O)N4CCC(C(=O)N[C@@H]5CCNC5)CC4)c(Cl)c3)n2C)c(F)c1F [Example 64, 1-[2-chloro-4-[[5-(2,3-difluoro-4-methoxy-phenyl)-1-methyl-imidazole-2-carbonyl]amino]benzoyl]-N-[(3R)-pyrrolidin-3-yl]piperidine-4-carboxamide formate]	
0.05	COc1ccc(-c2cnc(C(=O)Nc3ccc(C(=O)N4CCC(C(=O)N[C@H]5[C@@H]6CNC[C@@H]65)CC4)c(Cl)c3)n2C)c(F)c1F [Example 59, N-[(1S,5R)-3-azabicyclo[3.1.0]hexan-6-yl]-1-[2-chloro-4-[[5-(2,3-difluoro-4-methoxy-phenyl)-1-methyl-imidazole-2-carbonyl]amino]benzoyl] piperidine-4-carboxamide formate]	
0.1	COc1ccc(-c2cnc(C(=O)Nc3ccc(C(=O)N4CCN(C(=O)N[C@H]5CNC[C@@H]5O)CC4)c(C)c3)n2C)c(F)c1F [Example 285, 4-[4-[[5-(2,3-difluoro-4-methoxy-phenyl)-1-methyl-imidazole-2-carbonyl]amino]-2-methyl-benzoyl]-N-[(3S,4S)-4-hydroxypyrrolidin-3-yl]piperazine-1-carboxamide formate]	
0.03	Cn1c(-c2ccc(OCF)c(F)c2F)cnc1C(=O)Nc1ccc(C(=O)N2CCN(C(=O)C3CCNCC3)CC2)c(Cl)c1 [Example 143, N-[3-chloro-4-[4-(piperidine-4-carbonyl)piperazine-1-carbonyl]phenyl]-5-[2,3-difluoro-4-(fluoromethoxy)phenyl]-1-methyl-imidazole-2-carboxamide formate]	
0.13	Cn1c(-c2ccc(OCC#N)c(F)c2F)cnc1C(=O)Nc1ccc(C(=O)N2CCNCC2)c(Cl)c1 [Example 14, N-[3-chloro-4-(piperazine-1-carbonyl)phenyl]-5-[4-(cyanomethoxy)-2,3-difluoro-phenyl]-1-methyl-imidazole-2-carboxamide]	
0.07	Cn1c(-c2ccc(OC(F)F)c(F)c2F)cnc1C(=O)Nc1ccc(C(=O)N2CCN(C(=O)C3CCN(CC(N)=O)CC3)CC2)c(Cl)c1 [Example 289]	
0.03	Cn1c(-c2ccc(OCF)c(F)c2F)cnc1C(=O)Nc1ccc(C(=O)N2CCC(C(=O)N[C@H]3CNC[C@H]3F)CC2)c(Cl)c1 [Example 51, 1-[2-chloro-4-[[5-[2,3-difluoro-4-(fluoromethoxy)phenyl]-1-methyl-imidazole-2-carbonyl]amino]benzoyl]-N-[(3S,4R)-4-fluoropyrrolidin-3-yl]piperidine-4-carboxamide trifluoroacetate]	
0.15	COc1c(F)cc(-c2cnc(C(=O)Nc3ccc(C(=O)N4CCN(C(=O)C5CCNCC5)CC4)c(Cl)c3)n2C)c(F)c1F [Example 168, N-[3-chloro-4-[4-(piperidine-4-carbonyl)piperazine-1-carbonyl]phenyl]-1-methyl-5-(2,3,5-trifluoro-4-methoxy-phenyl)imidazole-2-carboxamide formate]	
0.04	COc1ccc(-c2cnc(C(=O)Nc3ccc(C(=O)N4CCN(C(=O)CCN)CC4)c(Cl)c3)n2C)c(F)c1F [Example 123, N-[4-[4-(3-aminopropanoyl)piperazine-1-carbonyl]-3-chloro-phenyl]-5-(2,3-difluoro-4-methoxy-phenyl)-1-methyl-imidazole-2-carboxamide formate]	
0.04	COc1ccc(-c2cnc(C(=O)Nc3ccc(C(=O)N4CCN(C(=O)CC5CNC(=O)C5)CC4)c(Cl)c3)n2C)c(F)c1F (stereo not drawn) [Example 129, N-[3-chloro-4-[4-[2-(5-oxopyrrolidin-3-yl)acetyl]piperazine-1-carbonyl]phenyl]-5-(2,3-difluoro-4-methoxy-phenyl)-1-methyl-imidazole-2-carboxamide]	
0.05	Cn1c(-c2ccc(OCF)c(F)c2Cl)cnc1C(=O)Nc1ccc(C(=O)N2CCN(C(=O)CC3(O)CCNCC3)CC2)c(Cl)c1 [Example 173, 5-[2-chloro-3-fluoro-4-(fluoromethoxy)phenyl]-N-[3-chloro-4-[4-[2-(4-hydroxy-4-piperidyl)acetyl]piperazine-1-carbonyl]phenyl]-1-methyl-imidazole-2-carboxamide formate]	
8.7	Cn1c(-c2ccc(CC#N)cc2F)cnc1C(=O)Nc1ccc(C(=O)N2CCN(C(=O)C3CCNCC3)CC2)c(Cl)c1 [Example 256, N-[3-chloro-4-[4-(piperidine-4-carbonyl)piperazine-1-carbonyl]phenyl]-5-[4-(cyanomethyl)-2-fluoro-phenyl]-1-methyl-imidazole-2-carboxamide formate]	
0.04	Cn1c(-c2ccc(OCF)c(F)c2F)cnc1C(=O)Nc1ccc(C(=O)N2CCN(C(=O)C3CNCC3O)CC2)c(Cl)c1 (stereo not drawn) [Example 148, N-[3-chloro-4-[4-(4-hydroxypyrrolidine-3-carbonyl)piperazine-1-carbonyl]phenyl]-5-[2,3-difluoro-4-(fluoromethoxy)phenyl]-1-methyl-imidazole-2-carboxamide formate]	
0.07	COc1ccc(-c2cnc(C(=O)Nc3ccc(C(=O)N4CCC(C(=O)NC[C@H]5CCNC5)CC4)c(Cl)c3)n2C)c(F)c1F [Example 56, 1-[2-chloro-4-[[5-(2,3-difluoro-4-methoxy-phenyl)-1-methyl-imidazole-2-carbonyl]amino]benzoyl]-N-[[(3S)-pyrrolidin-3-yl]methyl]piperidine-4-carboxamide formate]	
